# Laboratory results as given in patent US9428513B2, “Triazolopyrazine” (Boehringer Ingelheim International GmbH, priority 2013, dated 2016).
# Target: BRD4-BD1 (Homo sapiens (Human), UniProt O60885)
# Assay: BRD4-H4 Tetraacetylated Peptide Inhibition AlphaScreen
# Assay type: biochemical
# Conditions: GST-BRD4-BD1 (aa 44-168) / biotinylated Acetyl-Histone H4 (Lys5, 8, 12, 16) peptide
# Description: Biological Methods BRD4-H4 Tetraacetylated Peptide Inhibition AlphaScreen
# Compounds are diluted in serial dilution 1:5 in assay buffer from 10 mM stock in DMSO (100 μM start concentration) in white OptiPlate-384 (PerkinElmer). A mix consisting of 15 nM GST-BRD4-BD1 protein (aa 44-168) or 150 nM GST-BRD4-BD2 (aa 333-460) and 15 nM biotinylated Acetyl-Histone H4 (Lys5, 8, 12, 16) peptide is prepared in assay buffer (50 mM HEPES pH=7.4; 25 mM NaCl; 0.05% Tween 20; 0.1% bovine serum albumin (BSA); 10 mM dithiothreitol (DTT)). 6 μl of the mix is added to the compound dilutions. Subsequently, 6 μl of premixed AlphaLISA Glutathione Acceptor Beads and AlphaScreen Streptavidin Donor Beads from PerkinElmer (in assay buffer at a concentration of 10 μg/ml each) are added and the samples are incubated for 30 min at RT in the dark (shaking 300 rpm). Afterwards, the signal is measured in a PerkinElmer Envision HTS Multilabel Reader using the AlphaScreen protocol from PerkinElmer.
# Each plate contains negative controls where biotinylated Acetyl-Histone H4 peptide and GST-BRD4-BD1 or GST-BRD4-BD2 are left out and replaced by assay buffer. Negative control values are entered as low basis value when using the software GraphPad Prism for calculations. Furthermore, a positive control (probe molecule JQ1+ with protein/peptide mix) is pipetted. Determination of IC50 values are carried out using GraphPad Prism 3.03 software (or updates thereof).
row,SMILES,IC50
1,COC[C@@H](C)n1c(-c2cn3c(C)nnc3c(NC(C)C)n2)nc2cnc(N3CCOCC3)cc21 [I-2],333 nM
2,Cc1nnc2c(NC(C)C)nc(-c3nc4cnc(N5CCOCC5)cc4n3C[C@@H]3CCCO3)cn12 [I-8],55 nM
3,CNc1nc(-c2nc3cnc(N4CCOCC4)cc3n2CC2CCCO2)cn2c(C)nnc12 (stereo not shown) [I-9],65 nM
4,CNc1nc(-c2nc3cnc(N4CCOCC4)cc3n2[C@H](C)COC)cn2c(C)nnc12 [I-11],549 nM
5,COC[C@H](C)n1c(-c2cn3c(C)nnc3c(NC(C)C)n2)nc2ccc(C(C)C)cc21 [I-15],123 nM
6,COC[C@H](C)n1c(-c2cn3c(C)nnc3c(NC(C)C)n2)nc2cnc(N)cc21 [I-18],69 nM
7,COC[C@H](C)n1c(-c2cn3c(C)nnc3c(NC(C)C)n2)nc2ccc(N3CCOC[C@@H]3C)cc21 [I-19],58 nM
8,COC[C@H](C)n1c(-c2cn3c(C)nnc3c(NC(C)C)n2)nc2ccc(N)cc21 [I-20],157 nM
9,Cc1nnc2c(NC3CCN(S(C)(=O)=O)CC3)nc(-c3nc4cnc(N5CCOCC5)cc4n3CCOC(C)C)cn12 [I-23],122 nM
10,COC[C@H](C)n1c(-c2cn3c(C)nnc3c(NC(C)C)n2)nc2ccc(C3CN(C)CCO3)cc21 (stereo partly shown) [I-24],63 nM
11,COC[C@H](C)n1c(-c2cn3c(C)nnc3c(N)n2)nc2cnc(N3CCOCC3)cc21 [I-26],123 nM
12,COC[C@H](C)n1c(-c2cn3c(C)nnc3c(NC(C)C)n2)nc2ccc(N3CCOCC3)nc21 [I-28],69 nM

# Second part, the compound after the results:
row,IC50,SMILES
1,32 nM,"COCCn1c(-c2cn3c(C)nnc3c(NC(C)C)n2)nc2cnc(N3CCOCC3)cc21 [I-1, 6-[1-(2-methoxyethyl)-6-(morpholin-4-yl)-1H-imidazo[4,5-c]pyridin-2-yl]-3-methyl-N-(propan-2-yl)-[1,2,4]triazolo[4,3-a]pyrazin-8-amine]"
2,33 nM,COC[C@H](C)n1c(-c2cn3c(C)nnc3c(NC(C)C)n2)nc2cnc(N3CCOCC3)cc21 [I-3]
3,43 nM,Cc1nnc2c(NC(C)C)nc(-c3nc4cnc(N5CCOCC5)cc4n3CCOC(C)C)cn12 [I-4]
4,33 nM,CCOCCn1c(-c2cn3c(C)nnc3c(NC(C)C)n2)nc2cnc(N3CCOCC3)cc21 [I-5]
5,51 nM,CNc1nc(-c2nc3cnc(N4CCOCC4)cc3n2[C@@H](C)COC)cn2c(C)nnc12 [I-6]
6,55 nM,CNc1nc(-c2nc3cnc(N4CCOCC4)cc3n2C[C@@H]2CCCO2)cn2c(C)nnc12 [I-7]
7,54 nM,Cc1nnc2c(NC(C)C)nc(-c3nc4cnc(N5CCOCC5)cc4n3C[C@H]3CCCO3)cn12 [I-10]
8,51 nM,COC[C@H](C)n1c(-c2cn3c(C)nnc3c(NC(C)C)n2)nc2cnc(N3CCOC[C@@H]3C)cc21 [I-12]
9,27 nM,CNc1nc(-c2nc3cnc(N4CCOC[C@@H]4C)cc3n2[C@@H](C)COC)cn2c(C)nnc12 [I-13]
10,49 nM,COC[C@H](C)n1c(-c2cn3c(C)nnc3c(NC(C)C)n2)nc2ccc(C3CCOCC3)cc21 [I-14]
11,22 nM,COC[C@H](C)n1c(-c2cn3c(C)nnc3c(NC(C)C)n2)nc2cc3c(cc21)N(C)C(=O)C3(C)C [I-16]
12,17 nM,COC[C@H](C)n1c(-c2cn3c(C)nnc3c(NC(C)C)n2)nc2cc3c(cc21)N(C(C)C)S(=O)(=O)C3(C)C [I-21]
13,35 nM,Cc1nnc2c(NC3CCN(C)CC3)nc(-c3nc4cnc(N5CCOCC5)cc4n3CCOC(C)C)cn12 [I-22]
14,9 nM,Cc1nnc2c(NC(C)C)nc(-c3nc4cnc(N5CCOC[C@@H]5C)cc4n3C(C)CC3CC3)cn12 (stereo partly shown) [I-25]
15,26 nM,Cc1nnc2c(NC(C)C)nc(-c3nc4cnc(N5CCOC[C@@H]5C)cc4n3C(C)CC(F)(F)F)cn12 (stereo partly shown) [I-27]
16,49 nM,COCCn1c(-c2cn3c(C)nnc3c(NC(C)C)n2)nc2nc(N3CCOCC3)ccc21 [I-29]
